In brackets after ≈: the same amount, converted by molar mass. Where a name gives a salt, the structure may show the parent alone.
Key:
[1] = tested on: acute lymphoblastic leukemia (MOLT-3); test: cells; conditions: for IC50 (μg/mL) MOLT-3: MOLT-3 (Acute lymphoblastic leukemia), mean ± standard error, triplicate
Procedure: (§1) Background control wells contained the same volume of the complete culture medium. […] Samples at various concentrations were added to the microplate, which was incubated for another 48 h. Cell viability was determined by staining with MTT assay [3(4,5-dimethylthiazol-2-yl)-2-5diphenyl tetrazolium bromide (Sigma-Aldrich, St. Louis, Mo., USA)]. The reagent was dissolved in phosphate buffered saline at 5 mg/mL and filtered to sterilize and remove the small amount of insoluble residue present in some batches of MTT. […] Subsequently, dimethyl sulfoxide (Merck, Germany) (100 μL) was added to dissolve the resulting formazan by using sonication. The plates were read on a microplate reader (Molecular Devices, CA, USA). OD was measured at testing wavelength of 550 nm and reference wavelength of 650 nm.
XTT assay (3′-[1-[(phenylamino)-carbonyl]-3,4-tetrazolium]-bis(4-methoxy-6-nitro)benzene-sulfonic acid hydrate) for suspension cells was performed for acute lymphoblastic leukemia (MOLT-3).

cholangiocarcinoma = test: cells; conditions: for IC50 (μg/mL) HuCCA-1: HuCCA-1 (Cholangiocarcinoma), mean ± standard error, triplicate
Procedure: as §1

lung carcinoma = test: cells; conditions: for IC50 (μg/mL) A549: A549 (Lung carcinoma), mean ± standard error, triplicate
Procedure: as §1

hepatocarcinoma = test: cells; conditions: for IC50 (μg/mL) HepG2: HepG2 (Hepatocarcinoma), mean ± standard error, triplicate; for IC50: Homo sapiens, HepG2, read-out: IC50 (μg/mL) HepG2
Procedure: as §1

HIV-1 RT = HIV-1 RT (Human immunodeficiency virus type 1 group M subtype B, UniProt P04585); test: In vitro HIV-1 reverse transcriptase (HIV-1 RT) kit assay; assay type: biochemical; conditions: for inhibition at 1 µM: read-out: Inhibition rate (%) (HIV-RT kit assay) (1 μM)
Procedure: In Vitro HIV-1 Reverse Transcriptase (HIV-1 RT) Kit Assay
The HIV-RT inhibition assay was performed using an RT assay kit (Roche) according to the protocol of the kit. […] After 1 h of incubation at 37° C., the reaction mixture was transferred to a streptavidine-coated microtiter plate (MTP). Biotin-labeled dNTPs were incorporated in the template, because of the activity of RT bound to steptavidine. The unbound dNTPs were washed with wash buffer, and antidigoxigenin-peroxidase (anti-DIG-POD) was added to the MTP. The digoxigenin-labeled dNTPs incorporated in the template was bound to the anti-DIG-POD antibody. The unbound anti-DIG-POD was washed, and the peroxide substrate (ABST) was added to the MTP. A colored reaction product was produced during the cleavage of the substrate catalyses with a peroxide enzyme. […] The resulting color intensity was directly proportional to the actual RT activity. The percentage inhibitory activity of the RT inhibitors was calculated by comparing it to that of the sample without an inhibitor.

[2] = tested on: BxPC-3 pancreatic cancer cells; conditions: read-out: in vitro EC50; cited from earlier work

Row | Structure (SMILES) | IC50 (μg/mL) MOLT-3 [1] | IC50 (μg/mL) HuCCA-1 (cholangiocarcinoma) | IC50 (μg/mL) A549 (lung carcinoma) | IC50 (μg/mL) HepG2 (hepatocarcinoma) | Inhibition rate (%) (HIV-RT kit assay) (1 μM) (HIV-1 RT) | further results
1 | Cc1cc(C=O)cc(C)c1Oc1cc(Oc2c(C)cc(C=O)cc2C)c2ccccc2n1 [Compound 1] | 2.62 ± 0.30 µg/mL (≈ 6.16 µM) | 4.71 ± 0.30 µg/mL (≈ 11.1 µM) | 16.37 ± 0.56 µg/mL (≈ 38.5 µM) | 21.55 ± 5.23 µg/mL (≈ 50.6 µM) | 42.08% | –
2 | Cc1cc(C=O)cc(C)c1Oc1cc(Nc2ccc(C#N)cn2)nc2ccccc12 [Compound 4] | 4.98 ± 0.43 µg/mL (≈ 12.6 µM) | 49.5 ± 0.71 µg/mL (≈ 125 µM) | 42.44 ± 0.48 µg/mL (≈ 108 µM) | 36.53 ± 4.65 µg/mL (≈ 92.6 µM) | 62.23% | –
3 | Cc1cc(C#N)cc(C)c1Oc1cc(Oc2c(C)cc(C#N)cc2C)c2ccccc2n1 [Compound 5] | ≥50 µg/mL | 35.02 ± 4.65 µg/mL (≈ 83.5 µM) | 23.28 ± 2.40 µg/mL (≈ 55.5 µM) | 38.67 ± 2.87 µg/mL (≈ 92.2 µM) | 40.31% | –
4 | Cc1cc(C#N)cc(C)c1Oc1cc(Nc2ccc(C#N)cc2)nc2ccccc12 [Compound 6] | 19.04 ± 16.02 µg/mL (≈ 48.8 µM) | ≥50 µg/mL | ≥50 µg/mL | ≥50 µg/mL | 47.16% | –
5 | N#Cc1ccc(Nc2cc(Oc3ccc(C#N)cc3)c3ccccc3n2)cc1 [Compound 7] | ≥50 µg/mL | ≥50 µg/mL | ≥50 µg/mL | ≥50 µg/mL | 39.71% | –
6 | N#Cc1ccc(Oc2cc(Nc3ccc(C#N)cn3)nc3ccccc23)cc1 [Compound 8] | 5.12 ± 0.41 µg/mL (≈ 14.1 µM) | 8.31 ± 0.33 µg/mL (≈ 22.9 µM) | 5.09 ± 0.81 µg/mL (≈ 14 µM) | 39.96 ± 0.26 µg/mL (≈ 110 µM) | 27.61% | –
7 | O=C1Nc2ccc(Cl)cc2[C@@](C#CC2CC2)(C(F)(F)F)O1 [EFV, efavirenz] | – | – | – | – | – | EC50 [2]: 315 µM
8 | Cc1ccnc2c1NC(=O)c1cccnc1N2C1CC1 [NVP, nevirapine, reference compound] | – | – | – | – | – | inhibition at 1 µM (HIV-1 RT): 55.6%
9 | Cc1cc(/C=C/C#N)cc(C)c1Nc1ccnc(Nc2ccc(C#N)cc2)n1 [TMC278, rilpivirine, reference compound] | – | – | – | – | – | inhibition at 1 µM (HIV-1 RT): 96.5%
10 | COc1cccc2c1C(=O)c1c(O)c3c(c(O)c1C2=O)C[C@@](O)(C(=O)CO)C[C@@H]3O[C@H]1C[C@H](N)[C@H](O)[C@H](C)O1 [doxorubicin hydrochloride, reference compound] | – | – | – | – | – | IC50 (cholangiocarcinoma; Homo sapiens, HuCC-A1, read-out: IC50 (μg/mL) HuCCA-1): 0.89 ± 0.04 µg/mL; IC50 (lung carcinoma; Homo sapiens, A549, read-out: IC50 (μg/mL) A549): 0.19 ± 0.01 µg/mL; IC50 (hepatocarcinoma): 0.23 ± 0.02 µg/mL
11 | COc1cc([C@@H]2c3cc4c(cc3[C@@H](O[C@@H]3O[C@@H]5CO[C@@H](C)O[C@H]5[C@H](O)[C@H]3O)[C@H]3COC(=O)[C@H]23)OCO4)cc(OC)c1O [etoposide, reference compound] | – | – | – | – | – | IC50 ([1]; Homo sapiens, MOLT-3, read-out: IC50 (μg/mL) MOLT-3): 0.048 ± 0.007 µg/mL (≈ 0.0816 µM); IC50 (hepatocarcinoma): 21.1 ± 0.7 µg/mL (≈ 35.9 µM)

Source: US10889566B2, “Derivatives and composition of quinoline and naphthyridine” (CHULABHORN FOUNDATION, priority 2017, dated 2021)
